What is called IC50 is the concentration at which inhibition is half-maximal. Broadly, the bioavailability is dose-corrected exposure relative to a reference, in per cent. As usually defined, the logD is lipophilicity at a set pH, counting ionised and neutral species. The solubility is the concentration that dissolves in the medium under given conditions.

In data set [1] the target is T1, Tyrosine-protein kinase JAK2 (Homo sapiens, UniProt O60674).
Data set [2] is described as follows: Intrinsic clearance in human hepatocytes after 120 mins by LC-MS/MS analysis. It is filed as ADME, cell-based, Hepatocyte. The settings on record: read-out: CLH.
Data set [3] in a line: Intrinsic clearance in rat hepatocytes after 120 mins by LC-MS/MS analysis. As to conditions: read-out: CLH. It is filed as ADME, cell-based, Hepatocyte.
Data set [4] addresses T2, Tyrosine-protein kinase JAK1 (Homo sapiens, UniProt P23458).
For data set [5], the target named is T3, Tyrosine-protein kinase JAK3 (Homo sapiens, UniProt P52333).
T3 sequence (P52333 whole entry): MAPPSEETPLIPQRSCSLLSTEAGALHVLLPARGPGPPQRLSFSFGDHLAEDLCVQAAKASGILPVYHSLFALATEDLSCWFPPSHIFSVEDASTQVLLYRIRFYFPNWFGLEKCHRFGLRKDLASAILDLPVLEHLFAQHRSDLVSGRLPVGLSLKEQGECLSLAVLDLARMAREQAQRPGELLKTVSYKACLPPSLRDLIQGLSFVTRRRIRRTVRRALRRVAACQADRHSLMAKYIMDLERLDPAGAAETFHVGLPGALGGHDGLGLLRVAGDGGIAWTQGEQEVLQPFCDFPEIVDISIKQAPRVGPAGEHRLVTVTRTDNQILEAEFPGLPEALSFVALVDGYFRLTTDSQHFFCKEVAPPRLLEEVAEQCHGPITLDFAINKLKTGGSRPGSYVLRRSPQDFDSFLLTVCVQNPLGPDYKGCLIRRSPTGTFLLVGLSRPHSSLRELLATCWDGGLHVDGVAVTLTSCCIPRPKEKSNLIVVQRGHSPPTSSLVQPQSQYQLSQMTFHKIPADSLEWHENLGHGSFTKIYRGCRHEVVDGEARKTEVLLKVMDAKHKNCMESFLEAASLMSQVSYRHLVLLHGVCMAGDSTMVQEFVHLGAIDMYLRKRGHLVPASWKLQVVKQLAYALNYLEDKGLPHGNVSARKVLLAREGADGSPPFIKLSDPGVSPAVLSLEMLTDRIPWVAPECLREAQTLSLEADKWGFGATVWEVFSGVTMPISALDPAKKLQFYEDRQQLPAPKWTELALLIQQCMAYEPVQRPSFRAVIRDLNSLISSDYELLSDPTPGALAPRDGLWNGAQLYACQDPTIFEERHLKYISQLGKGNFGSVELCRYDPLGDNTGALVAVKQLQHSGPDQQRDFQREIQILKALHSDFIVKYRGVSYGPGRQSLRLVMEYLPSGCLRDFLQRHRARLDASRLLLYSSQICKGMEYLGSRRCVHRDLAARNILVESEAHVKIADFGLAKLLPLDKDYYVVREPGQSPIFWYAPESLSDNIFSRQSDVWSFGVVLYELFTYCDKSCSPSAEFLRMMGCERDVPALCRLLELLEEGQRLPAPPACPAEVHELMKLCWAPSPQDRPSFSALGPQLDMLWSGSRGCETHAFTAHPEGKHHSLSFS

Data set [6] deals with T1, Tyrosine-protein kinase JAK2. The source holds these as a separate data set.
A further data set is filed under the species Homo sapiens. In words: Selectivity ratio of IC50 for GST-tagged recombinant human JAK2 catalytic domain to IC50 for GST-tagged recombinant human JAK1 catalytic domain.
A short description of data set [7]: Oral bioavailability in rat at 1 mg/kg. The settings on record: in vivo. It is filed as ADME, organism-based.
For data set [8], the target named is Non-receptor tyrosine-protein kinase TYK2 (Homo sapiens, UniProt P29597).
The nature of data set [9]: Lipophilicity, log D of the compound at 100 uM at pH 7 by HPLC/DAD analysis. It is filed as physicochemical. As to conditions: buffer.
The target of data set [10] is T2, Tyrosine-protein kinase JAK1. This is another data set of the same source.
Data set [11] in a line: Solubility of the compound in FaSSIF solution at 100 uM after overnight incubation by UPLC/DAD analysis. The class given is physicochemical.
For data set [12], the target named is Voltage-gated inwardly rectifying potassium channel KCNH2 (Homo sapiens, UniProt Q12809).

In brackets after ≈: the same amount, converted by molar mass.

Sequence of Voltage-gated inwardly rectifying potassium channel KCNH2 (Q12809 whole entry): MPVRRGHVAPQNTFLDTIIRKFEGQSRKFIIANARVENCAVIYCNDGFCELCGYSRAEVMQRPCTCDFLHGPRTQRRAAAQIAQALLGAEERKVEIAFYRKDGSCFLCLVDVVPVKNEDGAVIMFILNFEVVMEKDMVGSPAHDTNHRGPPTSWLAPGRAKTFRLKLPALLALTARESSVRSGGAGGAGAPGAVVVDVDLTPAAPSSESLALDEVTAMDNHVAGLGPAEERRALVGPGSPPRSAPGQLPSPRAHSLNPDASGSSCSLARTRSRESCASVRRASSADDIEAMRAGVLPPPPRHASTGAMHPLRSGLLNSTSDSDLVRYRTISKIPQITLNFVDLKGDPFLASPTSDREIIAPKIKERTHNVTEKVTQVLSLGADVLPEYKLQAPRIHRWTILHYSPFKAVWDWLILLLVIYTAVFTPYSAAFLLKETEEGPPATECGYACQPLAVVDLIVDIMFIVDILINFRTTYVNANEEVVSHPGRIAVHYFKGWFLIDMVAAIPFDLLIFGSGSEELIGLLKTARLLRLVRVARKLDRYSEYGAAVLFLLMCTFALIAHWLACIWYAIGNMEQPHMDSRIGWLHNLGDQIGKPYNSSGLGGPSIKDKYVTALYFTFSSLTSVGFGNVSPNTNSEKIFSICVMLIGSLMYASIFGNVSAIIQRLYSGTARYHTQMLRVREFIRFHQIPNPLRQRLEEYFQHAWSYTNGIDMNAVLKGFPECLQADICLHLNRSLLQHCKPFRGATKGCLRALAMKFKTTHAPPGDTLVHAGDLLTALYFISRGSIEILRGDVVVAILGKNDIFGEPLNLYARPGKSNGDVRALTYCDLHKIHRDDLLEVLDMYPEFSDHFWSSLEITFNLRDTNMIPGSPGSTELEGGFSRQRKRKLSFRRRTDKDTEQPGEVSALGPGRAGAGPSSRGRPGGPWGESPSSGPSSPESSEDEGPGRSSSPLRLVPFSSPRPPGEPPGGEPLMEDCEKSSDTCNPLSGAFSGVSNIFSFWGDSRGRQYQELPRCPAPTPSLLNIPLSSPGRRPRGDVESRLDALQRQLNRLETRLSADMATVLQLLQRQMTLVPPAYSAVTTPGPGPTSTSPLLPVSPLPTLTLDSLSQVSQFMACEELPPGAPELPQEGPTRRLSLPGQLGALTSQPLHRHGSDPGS
Sequence of Non-receptor tyrosine-protein kinase TYK2 (P29597 whole entry): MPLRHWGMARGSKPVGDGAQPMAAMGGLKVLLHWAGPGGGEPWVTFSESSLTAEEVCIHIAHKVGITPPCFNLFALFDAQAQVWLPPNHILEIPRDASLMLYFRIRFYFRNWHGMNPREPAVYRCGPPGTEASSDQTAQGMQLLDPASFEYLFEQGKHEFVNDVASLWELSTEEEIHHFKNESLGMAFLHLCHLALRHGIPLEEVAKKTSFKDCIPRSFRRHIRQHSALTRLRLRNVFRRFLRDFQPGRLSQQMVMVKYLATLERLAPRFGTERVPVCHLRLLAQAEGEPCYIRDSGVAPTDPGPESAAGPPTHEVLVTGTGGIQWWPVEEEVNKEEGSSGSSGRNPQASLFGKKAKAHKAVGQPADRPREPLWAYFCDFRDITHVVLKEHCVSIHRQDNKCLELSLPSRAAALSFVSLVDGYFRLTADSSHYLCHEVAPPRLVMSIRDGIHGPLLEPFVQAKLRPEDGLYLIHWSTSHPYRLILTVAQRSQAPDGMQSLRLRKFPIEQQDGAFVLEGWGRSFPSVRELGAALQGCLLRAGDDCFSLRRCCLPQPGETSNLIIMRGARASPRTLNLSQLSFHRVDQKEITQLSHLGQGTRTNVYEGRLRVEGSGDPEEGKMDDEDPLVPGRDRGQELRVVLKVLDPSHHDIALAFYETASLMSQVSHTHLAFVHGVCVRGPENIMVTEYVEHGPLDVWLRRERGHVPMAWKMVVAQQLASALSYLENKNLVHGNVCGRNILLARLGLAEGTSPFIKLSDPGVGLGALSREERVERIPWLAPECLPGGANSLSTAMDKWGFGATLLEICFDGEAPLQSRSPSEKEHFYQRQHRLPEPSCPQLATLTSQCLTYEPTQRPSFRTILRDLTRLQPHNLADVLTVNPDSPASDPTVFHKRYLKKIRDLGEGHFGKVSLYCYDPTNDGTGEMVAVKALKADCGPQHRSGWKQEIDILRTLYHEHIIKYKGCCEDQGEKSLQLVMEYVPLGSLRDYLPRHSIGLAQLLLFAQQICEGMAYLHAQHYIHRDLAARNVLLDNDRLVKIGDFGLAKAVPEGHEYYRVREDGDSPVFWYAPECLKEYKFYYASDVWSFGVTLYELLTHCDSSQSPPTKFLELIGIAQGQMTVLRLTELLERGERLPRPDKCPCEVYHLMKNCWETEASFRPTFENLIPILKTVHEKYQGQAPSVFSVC
T2 sequence (P23458 whole entry): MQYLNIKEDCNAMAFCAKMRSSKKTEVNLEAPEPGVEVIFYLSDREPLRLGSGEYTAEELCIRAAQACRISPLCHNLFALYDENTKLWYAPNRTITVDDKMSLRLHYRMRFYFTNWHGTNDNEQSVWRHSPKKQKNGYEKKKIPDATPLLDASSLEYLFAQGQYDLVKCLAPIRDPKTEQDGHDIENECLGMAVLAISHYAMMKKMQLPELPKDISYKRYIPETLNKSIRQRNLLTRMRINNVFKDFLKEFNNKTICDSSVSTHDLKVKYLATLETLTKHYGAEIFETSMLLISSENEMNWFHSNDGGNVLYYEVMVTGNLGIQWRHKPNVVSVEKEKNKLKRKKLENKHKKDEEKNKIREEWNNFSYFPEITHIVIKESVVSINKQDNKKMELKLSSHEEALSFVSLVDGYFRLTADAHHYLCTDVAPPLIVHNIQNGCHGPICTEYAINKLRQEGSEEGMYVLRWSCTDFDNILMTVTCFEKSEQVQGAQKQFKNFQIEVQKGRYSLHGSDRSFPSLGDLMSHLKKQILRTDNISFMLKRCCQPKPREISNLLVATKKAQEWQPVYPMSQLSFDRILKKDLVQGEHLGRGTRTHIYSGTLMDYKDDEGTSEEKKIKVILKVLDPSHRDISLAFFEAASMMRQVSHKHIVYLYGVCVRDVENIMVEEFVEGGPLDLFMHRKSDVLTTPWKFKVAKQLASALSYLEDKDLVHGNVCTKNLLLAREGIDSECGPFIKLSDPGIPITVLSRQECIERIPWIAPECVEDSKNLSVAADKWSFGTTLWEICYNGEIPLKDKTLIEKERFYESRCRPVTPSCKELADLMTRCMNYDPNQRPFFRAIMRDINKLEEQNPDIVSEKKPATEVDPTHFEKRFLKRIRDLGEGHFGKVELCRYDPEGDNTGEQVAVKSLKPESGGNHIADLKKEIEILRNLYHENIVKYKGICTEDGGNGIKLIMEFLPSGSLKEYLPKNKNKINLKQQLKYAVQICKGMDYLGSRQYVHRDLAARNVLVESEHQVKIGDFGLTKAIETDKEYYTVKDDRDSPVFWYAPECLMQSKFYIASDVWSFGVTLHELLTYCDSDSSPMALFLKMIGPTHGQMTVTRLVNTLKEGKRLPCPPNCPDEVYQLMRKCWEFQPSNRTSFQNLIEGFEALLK
T1 sequence (O60674 whole entry): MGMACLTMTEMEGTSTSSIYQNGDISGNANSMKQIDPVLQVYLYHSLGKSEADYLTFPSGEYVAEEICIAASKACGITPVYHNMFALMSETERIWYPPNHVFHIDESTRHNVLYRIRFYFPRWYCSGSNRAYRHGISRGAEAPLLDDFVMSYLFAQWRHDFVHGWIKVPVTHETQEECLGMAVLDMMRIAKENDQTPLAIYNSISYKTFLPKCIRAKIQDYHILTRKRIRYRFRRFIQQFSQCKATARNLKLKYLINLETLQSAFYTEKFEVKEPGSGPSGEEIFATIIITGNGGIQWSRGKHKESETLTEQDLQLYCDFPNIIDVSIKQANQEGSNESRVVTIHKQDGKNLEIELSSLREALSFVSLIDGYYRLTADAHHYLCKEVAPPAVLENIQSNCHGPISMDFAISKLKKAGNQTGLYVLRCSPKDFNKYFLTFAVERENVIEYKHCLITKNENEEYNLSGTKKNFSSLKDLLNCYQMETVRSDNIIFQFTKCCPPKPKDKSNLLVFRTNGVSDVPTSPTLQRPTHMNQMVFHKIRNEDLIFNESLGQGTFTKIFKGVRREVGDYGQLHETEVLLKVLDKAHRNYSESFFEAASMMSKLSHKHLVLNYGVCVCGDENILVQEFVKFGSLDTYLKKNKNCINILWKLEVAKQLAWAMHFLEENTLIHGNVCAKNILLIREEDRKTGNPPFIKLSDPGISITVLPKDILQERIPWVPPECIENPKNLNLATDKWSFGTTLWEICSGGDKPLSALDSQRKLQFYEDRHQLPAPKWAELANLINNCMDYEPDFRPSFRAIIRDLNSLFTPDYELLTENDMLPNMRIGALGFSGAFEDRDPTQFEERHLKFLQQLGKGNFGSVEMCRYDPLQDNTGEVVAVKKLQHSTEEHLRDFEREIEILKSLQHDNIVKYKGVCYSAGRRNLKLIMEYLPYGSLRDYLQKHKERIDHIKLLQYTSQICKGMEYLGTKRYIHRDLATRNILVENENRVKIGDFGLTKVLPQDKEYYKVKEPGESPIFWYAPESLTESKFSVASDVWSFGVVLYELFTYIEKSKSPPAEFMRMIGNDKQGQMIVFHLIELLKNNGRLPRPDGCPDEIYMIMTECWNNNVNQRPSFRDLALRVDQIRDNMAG

Turning to `COc1cc(Nc2nn([C@H]3COCC[C@@H]3C#N)cc2C(N)=O)ccc1C#N`, the IC50 in data set [1] was determined as 430 nM; in data set [4] it was 19 nM; in data set [5], 391 nM; in data set [6], 3.2 nM; in [8] it was 9 nM. Moreover, the CLint scaled was 24 mL/min/kg in data set [2] and below 40 mL/min/kg in [3]. Also, the Ratio IC50 in the data set listed under Homo sapiens was 46. The same compound yielded a bioavailability in data set [7] of 2%. The logD at 100 µM in [9] amounted to 1.87.

Consider `COc1cc(Nc2nn([C@H]3COCC[C@@H]3C#N)cc2C(N)=O)cc(F)n1` [ATINVICITINIB], for which the IC50 in [10] worked out at 0.4 nM; in [4], 39 nM; in [8], 13 nM. The values for the CLint scaled in data set [2] and in [3] were 2 mL/min/kg and 14 mL/min/kg, respectively. For the same compound, in data set [7], the bioavailability stood at 49%. In data set [9], the logD at 100 µM was determined as 1.89.

As to `N#C[C@H]1CCOC[C@@H]1n1cc(C(N)=O)c(Nc2ccc(-n3ccnn3)cc2)n1`, the IC50 in [1] is 254 nM; in data set [10], 0.06 nM; in data set [4], 23 nM; in [5], 116 nM; in data set [6] it was 0.7 nM; in [8], 0.5 nM. This compound showed a solubility at 100 µM in data set [11] of 96 µM (≈ 36.3 µg/mL). The values for the CLint scaled in data set [2] and in data set [3] were 2.5 mL/min/kg and 4.8 mL/min/kg, respectively. In data set [7], the bioavailability turned out to be 3%. The compound further yielded a logD at 100 µM in data set [9] of 1.

As to `N#C[C@H]1CCOC[C@@H]1n1cc(C(N)=O)c(Nc2ccnc(F)c2)n1`, the IC50 is above 60000 nM in [12], 511 nM in data set [5] and 3 nM in data set [8]. The compound further had a solubility at 100 µM in [11] of 159 µM (≈ 52.5 µg/mL). Further, the CLint scaled in [2] amounted to 1.5 mL/min/kg; in data set [3] it was 5 mL/min/kg. Besides, the bioavailability in data set [7] was determined as 19%. In data set [9], this compound gave a logD at 100 µM of 1.18.

Consider `N#C[C@H]1CCOC[C@@H]1n1cc(C(N)=O)c(Nc2ccc([C@H](O)C(F)(F)F)cc2)n1`, for which the IC50 is above 60000 nM in data set [12], 100 nM in data set [5] and 0.4 nM in [8]. For the same compound, the figures for the CLint scaled in data set [2] and in data set [3] were below 20 mL/min/kg and below 40 mL/min/kg, respectively. Also, the bioavailability in [7] was 9%. The compound further returned a logD at 100 µM in data set [9] of 1.93.

`N#C[C@H]1CCOC[C@@H]1n1cc(C(N)=O)c(Nc2cc(F)c3nccc(Cl)c3c2)n1`: the IC50 turned out to be 608 nM in [1]; 0.24 nM in data set [10]; 14 nM in [4]; 1010 nM in [5]; 7 nM in data set [6]; 12 nM in data set [8]. The CLint scaled in [2] is 25 mL/min/kg; in data set [3], 52 mL/min/kg. In the data set listed under Homo sapiens, the Ratio IC50 is 29. Further, the bioavailability in data set [7] worked out at 19%. This compound had a logD at 100 µM in data set [9] of 1.81.

As to `N#Cc1ccc(Nc2nn([C@H]3COCC[C@@H]3C#N)cc2C(N)=O)cc1Cl`, the IC50 turned out to be 261 nM in data set [1]; 0.4 nM in [10]; 26 nM in data set [4]; 556 nM in data set [5]; 2.7 nM in data set [6]; 4 nM in data set [8]. For the same compound, in the data set listed under Homo sapiens, the Ratio IC50 was 7. Moreover, the bioavailability in [7] is 23%. The compound also yielded a logD at 100 µM in [9] of 2.18.

On to `CN([C@H]1CC[C@H](n2cc(C(N)=O)c(Nc3ccc(Cl)cc3)n2)[C@@H](C#N)C1)C1(C)COC1`, for which it took 46000 nM to reach half-maximal inhibition in [12] (IC50). In addition, the CLint scaled in [2] was determined as 32 mL/min/kg; in data set [3], 80 mL/min/kg.

`N#Cc1ccc(Nc2nn([C@H]3COCC[C@@H]3C#N)cc2C(N)=O)cc1C#N`: the IC50 in [1] amounted to 1190 nM; in [10], 0.9 nM; in [4] it was 77 nM; in [5], 656 nM; in [6], 5 nM; in [8] it was 11 nM. In the data set filed under Homo sapiens, the Ratio IC50 turned out to be 6. Further, the logD at 100 µM in data set [9] turned out to be 1.99.

Turning to `N#C[C@H]1CCOC[C@@H]1n1cc(C(N)=O)c(Nc2ccc(OC(F)F)cc2)n1`, the IC50 in [12] was 25000 nM; in [1], 54 nM; in data set [10] it was 0.1 nM; in [4], 5 nM; in data set [5], 196 nM; in [6], 0.8 nM. The same compound came in with an IC50 in data set [8] of 0.7 nM. Moreover, the CLint scaled in data set [2] is 28 mL/min/kg; in data set [3] it was 59 mL/min/kg. Also, the Ratio IC50 in the data set filed under Homo sapiens was 11. The compound also showed a bioavailability in data set [7] of 42%. For the same compound, in data set [9], the logD at 100 µM was determined as 2.27.

The compound `N#C[C@H]1C[C@@H](O)CC[C@@H]1n1cc(C(N)=O)c(Nc2ccc(Cl)cc2)n1` yielded an IC50 in data set [12] of 26000 nM. In addition, the bioavailability in [7] was found to be 10%.

Take `C[C@@H]1NS(=O)(=O)c2ccc(Nc3nn([C@H]4COCC[C@@H]4C#N)cc3C(N)=O)cc21`: the IC50 in data set [1] worked out at 224 nM; in data set [10] it was 0.04 nM; in [4], 16 nM; in data set [5] it was 315 nM; in [6] it was 2 nM; in data set [8] it was 1.7 nM. The CLint scaled in data set [2] and in [3] was 62 mL/min/kg in each case. Moreover, the Ratio IC50 in the data set filed under Homo sapiens was 50. Further, in [9], the logD at 100 µM stood at 3.15.

Take `Cc1ncnc2ccc(Nc3nn([C@H]4COCC[C@@H]4C#N)cc3C(N)=O)cc12`: the IC50 in [1] worked out at 1630 nM; in data set [10], 0.16 nM; in data set [4], 24 nM; in data set [5], 783 nM; in data set [6], 7 nM; in [8], 14 nM. Also, the Ratio IC50 in the data set filed under Homo sapiens is 43. Moreover, the logD at 100 µM in data set [9] turned out to be 1.02.

Turning to `N#Cc1ccc(Nc2nn([C@H]3COCC[C@@H]3C#N)cc2C(N)=O)cc1C1CC1`, the IC50 is 744 nM in data set [1]; 1.4 nM in data set [10]; 72 nM in data set [4]; above 1500 nM in data set [5]; 16 nM in data set [6]; 40 nM in data set [8]. Besides, the Ratio IC50 in the data set filed under Homo sapiens stood at 11. This compound registered a logD at 100 µM in [9] of 2.34.

Turning to `COc1ccnc2c(F)cc(Nc3nn([C@H]4COCC[C@@H]4C#N)cc3C(N)=O)cc12`, the IC50 is 2110 nM in [1]; 0.19 nM in data set [10]; 24 nM in data set [4]; above 1500 nM in data set [5]; 10 nM in data set [6]; 8 nM in data set [8]. The CLint scaled in data set [2] and in data set [3] was 15 mL/min/kg each time. In addition, the Ratio IC50 in the data set filed under Homo sapiens came out at 53. This compound also showed a logD at 100 µM in data set [9] of 1.4.

With `N#C[C@H]1CCOC[C@@H]1n1cc(C(N)=O)c(Nc2ccc(C3CC3)cc2)n1`, the IC50 in data set [12] is 35000 nM; in data set [1], 200 nM; in [10], 0.5 nM; in data set [4] it was 37 nM; in data set [5] it was 280 nM; in data set [6] it was 1.9 nM. In [8], this compound gave an IC50 of 3.9 nM. For the same compound, the figures for the CLint scaled in data set [2] and in [3] were 41 mL/min/kg and 262 mL/min/kg, respectively. Also, the Ratio IC50 in the data set filed under Homo sapiens turned out to be 4. In [9], this compound displayed a logD at 100 µM of 2.58.

On to `CN(C)c1cc(Nc2nn([C@H]3COCC[C@@H]3C#N)cc2C(N)=O)cc(F)n1`, for which the IC50 in [1] amounted to 530 nM; in [10] it was 0.18 nM; in data set [4] it was 28 nM; in [5], 701 nM; in data set [6], 3.4 nM; in [8], 13 nM. For the same compound, the CLint scaled in data set [2] came out at 4 mL/min/kg; in [3], 9 mL/min/kg. Moreover, in the data set listed under Homo sapiens, the Ratio IC50 stood at 19. In data set [7], this compound showed a bioavailability of 4%. In addition, the logD at 100 µM in data set [9] stood at 2.07.

The record behind these values is ChEMBL document CHEMBL4028908, “The Discovery of 3-((4-Chloro-3-methoxyphenyl)amino)-1-((3R,4S)-4-cyanotetrahydro-2H-pyran-3-yl)-1H-pyrazole-4-carboxamide, a Highly Ligand Efficient and Efficacious Janus Kinase 1 Selective Inhibitor with Favorable Pharmacokinetic Properties” (J Med Chem, 2017).
